Experimental data published in ChEMBL document CHEMBL1131627, “Noncalcemic, antiproliferative, transcriptionally active, 24-fluorinated hybrid analogues of the hormone 1alpha, 25-dihydroxyvitamin D3. Synthesis and preliminary biological evaluation” (J Med Chem, 1998).

Target: T1, Vitamin D3 receptor (Rattus norvegicus) (UniProt P13053)
T1 sequence (whole entry): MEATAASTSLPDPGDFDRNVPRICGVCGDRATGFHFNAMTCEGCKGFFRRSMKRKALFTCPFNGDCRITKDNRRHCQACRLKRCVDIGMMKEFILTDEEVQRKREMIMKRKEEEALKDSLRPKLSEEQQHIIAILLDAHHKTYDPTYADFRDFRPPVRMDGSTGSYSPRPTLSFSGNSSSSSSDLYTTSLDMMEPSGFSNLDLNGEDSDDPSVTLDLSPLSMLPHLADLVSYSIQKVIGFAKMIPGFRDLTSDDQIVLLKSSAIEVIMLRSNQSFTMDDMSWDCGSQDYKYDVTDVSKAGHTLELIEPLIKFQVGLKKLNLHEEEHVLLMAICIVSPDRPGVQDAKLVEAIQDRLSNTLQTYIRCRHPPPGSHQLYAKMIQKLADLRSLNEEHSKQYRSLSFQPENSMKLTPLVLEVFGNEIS
Test: Vitamin D receptor mediated transcriptional activity in rat osteosarcoma ROS 17/2.8 cells

| ED50 [nM] | Compound |
| --- | --- |
| 0.3 | C=C1/C(=C\C=C2/CCC[C@]3(C)[C@@H]([C@H](C)CCCC(C)(C)O)CC[C@@H]23)C[C@@H](O)C[C@@H]1O |
| 0.2 | C=C1/C(=C\C=C2/CCC[C@]3(C)C([C@H](C)CCC(F)(F)C(C)(C)O)=CC[C@@H]23)C[C@H](O)C[C@H]1CO |
| 0.05 | C=C1/C(=C\C=C2/CCC[C@]3(C)C([C@H](C)CCC(F)(F)C(O)(CC)CC)=CC[C@@H]23)C[C@H](O)C[C@H]1CO |
